Source: patent US20260083865A1, “PROSTATE SPECIFIC MEMBRANE ANTIGEN (PSMA) LIGANDS AND USE THEREOF” (priority 2022, published 2026)
Numbered stars: 1 amine (or outer) side, 2 acyl side, 3 side chain; on linkers, the order of the positions; unused ones are H or OH. Bridge positions count the residues as written; N and C are the ends. Square brackets hold non-standard residues; d marks the D form. Side chains are listed from the residue outwards. Peptide text beside a SMILES is read from it. * marks the point of attachment. TtdsdLys(DOTA)NH2 = NC(=O)[C@@H](CCCCNC(=O)CN1CCN(CC(=O)O)CCN(CC(=O)O)CCN(CC(=O)O)CC1)NC(=O)CCC(=O)NCCCOCCOCCOCCCN*; DO3AM = NC(=O)CN1CCN(CC(N)=O)CCN(CC(=O)*)CCN(CC(N)=O)CC1; DOTA = O=C(O)CN1CCN(CC(=O)O)CCN(CC(=O)*)CCN(CC(=O)O)CC1; X10 = NC(=O)CN1CCN(CC(=O)O)CCN(CC(=O)*)CCN(CC(=O)O)CC1; X16 = CNC(=N)N(C)CCC[C@H](N[*:1])C(=O)[*:2]; Phe(3-Cl) = N[C@@H](Cc1cccc(Cl)c1)C(=O)O; Phe(4-Cl) = N[C@@H](Cc1ccc(Cl)cc1)C(=O)O; Arg(Me) = CNC(=N)NCCC[C@H](N)C(=O)O; X1 = O=C(CC1CCN([*:1])CC1)[*:2]; Cit = NC(=O)NCCC[C@H](N)C(=O)O; Lys(Me) = CNCCCC[C@H](N)C(=O)O; NMeN = CN[C@@H](CC(N)=O)C(=O)O; Suc = O=C(CCC(=O)[*:2])[*:1]; Tle = CC(C)(C)[C@H](N)C(=O)O; Nle = CCCC[C@H](N)C(=O)O; Aib = CC(C)(N)C(=O)O; Ahx = NCCCCCC(=O)O

How the values were obtained:
[1] = biological target: T1, PSMA-expressing C4-2 cells (Homo sapiens, UniProt Q04609); assay: FACS binding assay (competition with 50 nM PSM-0183); details: FACS binding, C4-2 cells, category; read-out: pIC50 [C4-2] CAT (converted)
T1 construct: PSMA-expressing C4-2 cells (ATCC, Cat. No. CRL-3314) were cultured in RPMI-1640; host or cells: C4-2 cells
Method in brief: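 C4-2 cells were incubated 1 h at 4 °C with 50 nM AF488-labelled peptide PSM-0183 plus increasing test compound concentrations, then washed twice in ice-cold buffer. Median fluorescence in the AF488 channel was read by flow cytometry. IC50/pIC50 was derived by 4PL fitting of MFI versus concentration.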

[2] = biological target: T2, Fc-fusion protein of human PSMA (hPSMA-Fc) (Homo sapiens, UniProt Q04609); assay: Surface plasmon resonance assay (Biacore T200, single cycle kinetic); assay type: binding; details: PSMA SPR assay, category; read-out: pKD CAT (converted)
T2 construct: purchased Acro Biosystems PSA-H5264
Method in brief: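 hPSMA-Fc was captured (~1000 RU) on an Fc-binding-peptide CM5 chip, and compounds were run in single cycle kinetic mode at 25° C in HBST with 0.1% DMSO. Double-blank-corrected sensorgrams were fitted to a 1:1 Langmuir model to give KD, reported as pKD.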

T2 sequence (Q04609 44-750 limits assumed): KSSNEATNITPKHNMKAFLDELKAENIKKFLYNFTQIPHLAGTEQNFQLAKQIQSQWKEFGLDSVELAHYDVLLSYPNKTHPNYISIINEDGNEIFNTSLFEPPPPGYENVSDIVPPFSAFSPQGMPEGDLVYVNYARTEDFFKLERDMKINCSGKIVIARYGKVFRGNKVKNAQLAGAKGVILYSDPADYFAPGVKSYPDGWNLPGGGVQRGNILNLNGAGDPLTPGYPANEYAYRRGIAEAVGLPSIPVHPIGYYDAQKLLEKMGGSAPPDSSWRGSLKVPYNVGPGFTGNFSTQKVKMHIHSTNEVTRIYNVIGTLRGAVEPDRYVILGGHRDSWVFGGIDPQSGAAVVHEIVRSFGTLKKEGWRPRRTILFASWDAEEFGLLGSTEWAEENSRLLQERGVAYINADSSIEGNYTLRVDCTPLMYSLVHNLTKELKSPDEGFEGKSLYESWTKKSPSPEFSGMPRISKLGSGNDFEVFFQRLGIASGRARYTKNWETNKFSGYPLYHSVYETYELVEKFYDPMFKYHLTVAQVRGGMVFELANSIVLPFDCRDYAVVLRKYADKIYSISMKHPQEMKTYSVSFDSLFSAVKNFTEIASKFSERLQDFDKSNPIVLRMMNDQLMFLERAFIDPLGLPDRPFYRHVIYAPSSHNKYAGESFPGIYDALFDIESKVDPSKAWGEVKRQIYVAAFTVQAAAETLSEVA
T1 sequence (Q04609 whole entry): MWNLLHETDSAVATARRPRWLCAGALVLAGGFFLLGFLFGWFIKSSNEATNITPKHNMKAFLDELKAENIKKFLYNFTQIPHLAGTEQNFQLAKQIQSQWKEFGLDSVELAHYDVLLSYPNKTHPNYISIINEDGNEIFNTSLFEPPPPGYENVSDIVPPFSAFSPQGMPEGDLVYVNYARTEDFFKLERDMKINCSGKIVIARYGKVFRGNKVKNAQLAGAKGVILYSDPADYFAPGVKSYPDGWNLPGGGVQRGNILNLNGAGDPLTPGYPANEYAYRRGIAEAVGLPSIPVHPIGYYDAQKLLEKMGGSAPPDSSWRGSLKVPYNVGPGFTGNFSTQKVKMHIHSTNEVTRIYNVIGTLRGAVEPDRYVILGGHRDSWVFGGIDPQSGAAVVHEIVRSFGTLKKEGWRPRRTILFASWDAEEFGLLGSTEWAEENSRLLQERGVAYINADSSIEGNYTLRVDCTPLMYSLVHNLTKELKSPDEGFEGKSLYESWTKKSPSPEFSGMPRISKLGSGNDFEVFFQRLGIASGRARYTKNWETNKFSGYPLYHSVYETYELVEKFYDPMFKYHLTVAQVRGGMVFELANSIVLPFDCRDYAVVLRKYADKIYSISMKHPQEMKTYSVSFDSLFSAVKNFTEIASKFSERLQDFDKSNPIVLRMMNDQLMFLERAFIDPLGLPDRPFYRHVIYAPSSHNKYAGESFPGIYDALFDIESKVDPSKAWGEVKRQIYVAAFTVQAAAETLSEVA

| IC50 [1] [nM] | Kd [2] [nM] | SMILES |
| --- | --- | --- |
| < 200 | 12.6 to 126 | C[C@@H](O)[C@H](NC(=O)[C@@H](NC(=O)[C@@H]1CSSC[C@H](NC(=O)[C@H](Cc2ccccc2)NC(=O)C(C)(C)NC(=O)CCC(=O)O)C(=O)N[C@@H](CCCCN)C(=O)N[C@@H](CCCNC(=N)N)C(=O)NC(C)(C)C(=O)N[C@@H](CC(N)=O)C(=O)N1)C(C)(C)C)C(N)=O [PSM-0577, HO-Succinyl-Aib-Phe-[Cys-Lys-Arg-Aib-Asn-Cys]-Tle-Thr-NH2] (Suc-[Aib]FCKR[Aib]NC[Tle]T-NH2; disulfide 3-8) |
| < 200 | 12.6 to 126 | CCCC[C@H](NC(=O)[C@@H]1CSSC[C@H](NC(=O)[C@H](Cc2ccccc2)NC(=O)[C@H](C)NC(=O)[C@@H](NC(C)=O)[C@@H](C)O)C(=O)N[C@@H](CCCCN)C(=O)N[C@@H](CCCNC(=N)N)C(=O)NC(C)(C)C(=O)N[C@@H](CC(N)=O)C(=O)N1)C(=O)N[C@H](C(=O)N[C@@H](CC(=O)O)C(N)=O)[C@@H](C)O [PSM-0578, Ac-Thr-Ala-Phe-[Cys-Lys-Arg-Aib-Asn-Cys]-Nle-Thr-Asp-NH2] (Ac-TAFCKR[Aib]NC[Nle]TD-NH2; disulfide 4-9) |
| 1260 to 3160 | > 501 | CCCC[C@H](NC(=O)[C@@H]1CSSC[C@H](NC(=O)[C@H](Cc2ccccc2)NC(=O)[C@H](C)NC(=O)[C@@H](NC(C)=O)[C@@H](C)O)C(=O)N[C@@H](CCCCN)C(=O)N[C@@H](C)C(=O)N[C@@H](C)C(=O)N[C@@H](CC(N)=O)C(=O)N1)C(=O)N[C@H](C(=O)N[C@@H](CC(=O)O)C(N)=O)[C@@H](C)O [PSM-0581, Ac-Thr-Ala-Phe-[Cys-Lys-Ala-Ala-Asn-Cys]-Nle-Thr-Asp-NH2] (Ac-TAFCKAANC[Nle]TD-NH2; disulfide 4-9) |
| < 200 | < 12.6 | CC(=O)N[C@H](C(=O)NC(C)(C)C(=O)N[C@@H](Cc1ccccc1)C(=O)N[C@H]1CSSC[C@@H](C(=O)N[C@H](C(=O)N[C@H](C(N)=O)[C@@H](C)O)C(C)(C)C)NC(=O)[C@H](CC(N)=O)NC(=O)[C@H](CCCCNC(=O)CCCCCNC(=O)CN2CCN(CC(=O)O)CCN(CC(=O)O)CCN(CC(=O)O)CC2)NC(=O)[C@H](CCCNC(N)=O)NC(=O)[C@H](CCCCN)NC1=O)[C@@H](C)O [PSM-0582, Ac-Thr-Aib-Phe-[Cys-Lys-Arg-Lys(DOTA-Ahx)-Asn-Cys]-Tle-Thr-NH2] (Ac-T[Aib]FCK[Cit]K([Ahx-DOTA])NC[Tle]T-NH2; disulfide 4-9) |
| < 200 | < 12.6 | C[C@@H](O)[C@H](NC(=O)[C@@H](NC(=O)[C@@H]1CSSC[C@H](NC(=O)[C@H](Cc2cccc(Cl)c2)NC(=O)C(C)(C)NC(=O)[C@@H](NC(=O)CC2CCN(C(=O)CN3CCN(CC(=O)O)CCN(CC(=O)O)CCN(CC(=O)O)CC3)CC2)[C@@H](C)O)C(=O)N[C@@H](CCCCN)C(=O)N[C@@H](CCCNC(=N)N)C(=O)NC(C)(C)C(=O)N[C@@H](CC(N)=O)C(=O)N1)C(C)(C)C)C(N)=O [PSM-0583, DOTA-Cmp-Thr-Aib-Mcf-[Cys-Lys-Arg-Aib-Asn-Cys]-Tle-Thr-NH2] ({DOTA}-[X1]T[Aib][Phe(3-Cl)]CKR[Aib]NC[Tle]T-NH2; disulfide 5-10) |
| < 200 | < 12.6 | CC(=O)N[C@H](C(=O)NC(C)(C)C(=O)N[C@@H](Cc1ccc(Cl)cc1)C(=O)N[C@H]1CSSC[C@@H](C(=O)N[C@H](C(=O)N[C@H](C(N)=O)[C@@H](C)O)C(C)(C)C)NC(=O)[C@H](CC(C)C)NC(=O)C(C)(C)NC(=O)[C@H](CCCNC(=N)N)NC(=O)[C@H](CCCCN)NC1=O)[C@@H](C)O [PSM-0584, Ac-Thr-Aib-Pcf-[Cys-Lys-Cit-Aib-Leu-Cys]-Tle-Thr-NH2] (Ac-T[Aib][Phe(4-Cl)]CKR[Aib]LC[Tle]T-NH2; disulfide 4-9) |
| < 200 | 12.6 to 126 | C[C@@H]1NC(=O)[C@H](CCCNC(=N)N)NC(=O)[C@H](CCCCN)NC(=O)[C@@H](NC(=O)[C@H](Cc2ccc(Cl)cc2)NC(=O)C(C)(C)NC(=O)[C@@H](NC(=O)CC2CCN(C(=O)CN3CCN(CC(=O)O)CCN(CC(=O)O)CCN(CC(=O)O)CC3)CC2)[C@@H](C)O)CSSC[C@@H](C(=O)N[C@H](C(=O)N[C@H](C(N)=O)[C@@H](C)O)C(C)(C)C)NC(=O)[C@H](CC(N)=O)N(C)C1=O [PSM-0585, DOTA-Cmp-Thr-Aib-Pcf-[Cys-Lys-Arg-Ala-Nmn-Cys]-Tle-Thr-NH2] ({DOTA}-[X1]T[Aib][Phe(4-Cl)]CKRA[NMeN]C[Tle]T-NH2; disulfide 5-10) |
| > 3160 | > 501 | CCCC[C@H](NC(=O)[C@@H]1CSSC[C@H](NC(=O)[C@H](C)NC(=O)[C@H](C)NC(=O)[C@@H](NC(C)=O)[C@@H](C)O)C(=O)N[C@@H](CCCCN)C(=O)N[C@@H](CCCNC(=N)N)C(=O)N[C@@H](C)C(=O)N[C@@H](CC(N)=O)C(=O)N1)C(=O)N[C@H](C(=O)N[C@@H](CC(=O)O)C(N)=O)[C@@H](C)O [PSM-0586, Ac-Thr-Ala-Ala-[Cys-Lys-Arg-Ala-Asn-Cys]-Nle-Thr-Asp-NH2] (Ac-TAACKRANC[Nle]TD-NH2; disulfide 4-9) |
| < 200 | < 12.6 | CC(=O)N[C@H](C(=O)NC(C)(C)C(=O)N[C@@H](Cc1c[nH]c2ccccc12)C(=O)N[C@H]1CSSC[C@@H](C(=O)N[C@H](C(=O)N[C@H](C(=O)N[C@@H](CC(=O)O)C(N)=O)[C@@H](C)O)C(C)(C)C)NC(=O)[C@H](CC(N)=O)NC(=O)C(C)(C)NC(=O)[C@H](CCCNC(=N)N)NC(=O)[C@H](CCCCN)NC1=O)[C@@H](C)O [PSM-0587, Ac-Thr-Aib-Trp-[Cys-Lys-Arg-Aib-Asn-Cys]-Tle-Thr-Asp-NH2] (Ac-T[Aib]WCKR[Aib]NC[Tle]TD-NH2; disulfide 4-9) |
| < 200 | < 12.6 | CC(=O)N[C@H](C(=O)NC(C)(C)C(=O)N[C@@H](Cc1ccccc1)C(=O)N[C@H]1CSSC[C@@H](C(=O)N[C@H](C(=O)N[C@H](C(N)=O)[C@@H](C)O)C(C)(C)C)NC(=O)[C@H](Cc2c[nH]c3ccccc23)NC(=O)C(C)(C)NC(=O)[C@H](CCCNC(=N)N)NC(=O)[C@H](CCCCN)NC1=O)[C@@H](C)O [PSM-0589, Ac-Thr-Aib-Phe-[Cys-Lys-Arg-Aib-Trp-Cys]-Tle-Thr-NH2] (Ac-T[Aib]FCKR[Aib]WC[Tle]T-NH2; disulfide 4-9) |
| < 200 | < 12.6 | CNCCCC[C@@H]1NC(=O)[C@@H](NC(=O)[C@H](Cc2ccc(Cl)cc2)NC(=O)C(C)(C)NC(=O)[C@@H](NC(=O)CC2CCN(C(=O)CN3CCN(CC(=O)O)CCN(CC(=O)O)CCN(CC(=O)O)CC3)CC2)[C@@H](C)O)CSSC[C@@H](C(=O)N[C@H](C(=O)N[C@H](C(N)=O)[C@@H](C)O)C(C)(C)C)NC(=O)[C@H](CC(N)=O)NC(=O)C(C)(C)NC(=O)[C@H](CCCN(C)C(=N)NC)NC1=O [PSM-0590, DOTA-Cmp-Thr-Aib-Pcf-[Cys-Lys(Me)-RMe2a-Aib-Asn-Cys]-Tle-Thr-NH2] ({DOTA}-[X1]T[Aib][Phe(4-Cl)]C[Lys(Me)][X16][Aib]NC[Tle]T-NH2; disulfide 5-10) |
| > 3160 | > 501 | CC(=O)N[C@H]1CSSC[C@@H](C(=O)N[C@@H](CC(C)C)C(=O)N[C@H](C(=O)N[C@@H](CC(=O)O)C(=O)NCCCOCCOCCOCCCNC(=O)CCC(=O)N[C@H](CCCCNC(=O)CN2CCN(CC(=O)O)CCN(CC(=O)O)CCN(CC(=O)O)CC2)C(N)=O)[C@@H](C)O)NC(=O)[C@H](CC(N)=O)NC(=O)[C@H](C)NC(=O)[C@H](CCCNC(=N)N)NC(=O)[C@H](CCCCN)NC1=O [PSM-0591, Ac-[Cys-Lys-Arg-Ala-Asn-Cys]-Leu-Thr-Asp-Ttds-lys(DOTA)-NH2] (Ac-CKRANCLTD-{TtdsdLys(DOTA)NH2}; disulfide 1-6) |
| < 200 | < 12.6 | CNCCCC[C@@H]1NC(=O)[C@@H](NC(=O)[C@H](Cc2ccc(Cl)cc2)NC(=O)C(C)(C)NC(=O)[C@@H](NC(=O)CC2CCN(C(=O)CN3CCN(CC(N)=O)CCN(CC(N)=O)CCN(CC(N)=O)CC3)CC2)[C@@H](C)O)CSSC[C@@H](C(=O)N[C@H](C(=O)N[C@H](C(N)=O)[C@@H](C)O)C(C)(C)C)NC(=O)[C@H](CC(N)=O)NC(=O)C(C)(C)NC(=O)[C@H](CCCNC(=N)NC)NC1=O [PSM-0593, DOTAM-Cmp-Thr-Aib-Pcf-[Cys-Lys(Me)-Arg(Me)-Aib-Asn-Cys]-Tle-Thr-NH2] (DO3AM-[X1]T[Aib][Phe(4-Cl)]C[Lys(Me)][Arg(Me)][Aib]NC[Tle]T-NH2; disulfide 5-10) |
| 1260 to 3160 | > 501 | CNCCCC[C@@H]1NC(=O)[C@@H](NC(=O)[C@H](Cc2ccc(Cl)cc2)NC(=O)C(C)(C)NC(=O)[C@@H](NC(=O)CC2CCN(C(=O)CN3CCN(CC(=O)O)CCN(CC(=O)O)CCN(CC(=O)O)CC3)CC2)[C@@H](C)O)CSSC[C@@H](C(=O)O)NC(=O)[C@H](CC(N)=O)NC(=O)C(C)(C)NC(=O)[C@H](CCCNC(=N)NC)NC1=O [PSM-0594, DOTA-Cmp-Thr-Aib-Pcf-[Cys-Lys(Me)-Arg(Me)-Aib-Asn-Cys]-OH] ({DOTA}-[X1]T[Aib][Phe(4-Cl)]C[Lys(Me)][Arg(Me)][Aib]NC-OH; disulfide 5-10) |
| < 200 | < 12.6 | CNCCCC[C@@H]1NC(=O)[C@@H](NC(=O)[C@H](Cc2ccc(Cl)cc2)NC(=O)C(C)(C)NC(=O)[C@@H](NC(=O)CC2CCN(C(=O)CN3CCN(CC(=O)O)CCN(CC(N)=O)CCN(CC(=O)O)CC3)CC2)[C@@H](C)O)CSSC[C@@H](C(=O)N[C@H](C(=O)N[C@H](C(N)=O)[C@@H](C)O)C(C)(C)C)NC(=O)[C@H](CC(N)=O)NC(=O)C(C)(C)NC(=O)[C@H](CCCNC(=N)NC)NC1=O [PSM-0601, LSC-Cmp-Thr-Aib-Pcf-[Cys-Lys(Me)-Arg(Me)-Aib-Aan-Cys]-Tle-Thr-NH] (X10-[X1]T[Aib][Phe(4-Cl)]C[Lys(Me)][Arg(Me)][Aib]NC[Tle]T-NH2; disulfide 5-10) |
